≈ marks a conversion by molar mass, not a printed value.
Key:
Type in all cases: functional
[1] = system: Escherichia coli; assay: Antibacterial activity against Escherichia coli ATCC 25922 incubated for 20 hrs
[2] = system: Acinetobacter baumannii; assay: Antibacterial activity against Acinetobacter baumannii MB5973 incubated for 20 hrs
[3] = system: Pseudomonas aeruginosa; assay: Antibacterial activity against Pseudomonas aeruginosa ATCC 27853 incubated for 20 hrs

SMILES	MIC [1] [µg/mL]	MIC [2] [µg/mL]	MIC [3] [µg/mL]
CO[C@H]1/C=C/O[C@@]2(C)Oc3c(C)c(O)c4c(O)c(c(/C=N/N5CCN(C)CC5)c(O)c4c3C2=O)NC(=O)/C(C)=C\C=C\[C@H](C)[C@H](O)[C@@H](C)[C@@H](O)[C@@H](C)[C@H](OC(C)=O)[C@@H]1C [RIFAMPIN]	–	2.5 (≈ 3.04 µM)	–
C[C@H]1[C@H](NC(=O)/C(=N\OC(C)(C)C(=O)O)c2csc(N)n2)C(=O)N1S(=O)(=O)O [AZTREONAM]	0.25 (≈ 0.574 µM)	–	–
[C-]#[N+]C(=C)[C@](Cc1ccc(OC)cc1)([N+]#[C-])[C@H]1C[C@@H](O)CC[C@@H]1OC(C)=O	–	0.5 (≈ 1.36 µM)	16 (≈ 43.4 µM)

Continued by falling MIC [2], values first:

MIC [1] [µg/mL]	MIC [2] [µg/mL]	MIC [3] [µg/mL]	SMILES
–	1 (≈ 2.73 µM)	32 (≈ 87.3 µM)	[C-]#[N+]C(=C)[C@](Cc1ccc(OC)cc1)([N+]#[C-])[C@H]1C[C@@H](O)C=C[C@@H]1OC(C)=O
16 (≈ 41.8 µM)	0.25 (≈ 0.654 µM)	64 (≈ 167 µM)	[C-]#[N+]C(=C)[C@](Cc1ccc(OC)cc1)([N+]#[C-])[C@H]1C[C@@H](O)C=C[C@@H]1OC(=O)CO
16 (≈ 41.6 µM)	0.25 (≈ 0.65 µM)	2 (≈ 5.2 µM)	[C-]#[N+]C(=C)[C@](Cc1ccc(OC)cc1)([N+]#[C-])[C@H]1C[C@@H](O)CC[C@@H]1OC(=O)CO
